Source: patent US11390606B2, “Pyridazinone compounds and uses thereof” (Edgewise Therapeutics, Inc., priority 2018, dated 2022)

These compounds were tested against T1, skeletal myofibrils (Rabbit Psoas), myosin ATPase activity (assay: Skeletal Myofibril ATPase Assay). Settings: skeletal myofibrils (Rabbit Psoas 0.25 mg/mL), PK/LDH-coupled NADH absorbance at 340 nm.
T1 construct: Rabbit Psoas Prep 11 (0.25 mg/mL)
Type: biochemical
Experimental: Overview: Myosin ATPase activity is assessed by using a coupled reaction system, in which ADP generated by the myosin ATPase function is coupled to the disappearance of NADH through the pyruvate kinase/lactate dehydrogenase (PK-LDH) system. Myosin ATPase activity produces ADP, which is used as a substrate for PK to produce pyruvate and regenerate ATP. The pyruvate is then used as a substrate by LDH to oxidize NADH to NAD+. The rate of the reaction is monitored through the time-dependent disappearance of NADH using absorbance at 340 nm. Inhibition of ATPase activity by the assayed compounds is indicated by a reduced rate of NADH loss, relative to vehicle-treated controls, over the experimental time window. To assess the selectivity of the assayed compounds for skeletal myofibrils, the compounds are counter-screened in cardiac myofibrils.
Materials: The following stock solutions and reagents were used in the Skeletal Myofibril ATPase Assay:
Stock Solutions of pCa buffer. Combine PIPES, CaCl2, and EGTA solutions with 70 mL of water. Adjust pH to 7.0 and bring final volume to 100 mL.
Buffer A & Buffer B. Buffers were stored on ice until use.
Skeletal Myofibril ATPase Assay Procedure: BSA, ATP, NADH, PEP, and DTT solutions were thawed at room temperature, then transferred to ice. Pellet-frozen myofibrils were transferred with approximately twice the required volume into a sufficiently large tube and capped. Myofibrils were thawed by rolling in a water bath for approximately 15 min at room temperature and cooled on ice. Buffers A and B were prepared by adjusting volumes as necessary for required number of wells and stored on ice. 0.5 μL of the compounds to be assayed were added into wells. 25 μL of Buffer A was dispensed into the wells, followed by 25 μL of Buffer B. The wells were measured for absorbance at 340 nm, using a kinetic protocol in which the wells are read every 1.5-2 min for 45 min. The slope of the data was approximated by subtracting the minimum absorbance value from the maximum value for each well. This was accomplished either in the SoftMax Pro software or in a spreadsheet program such as Excel. Using GraphPad Prism 8.0, the data was normalized by assigning a value of 100% to the 1% DMSO vehicle wells. Typically, a normalized 0% value was simply assigned to a (Max−Min) value of 0. The normalized data was fit to a Four Parameter Logistic sigmoidal equation, constraining the bottom to be 0 or greater. Compounds of Table 1 to 4 were tested and results of the assay appear in Table 5 herein. A=IC50 is less than or equal to 10 μM; B=IC50 is greater than 10 μM and less than 100 μM; C=IC50 is greater than 100 μM.

O=c1ccc(-c2cnc(OCC(F)(F)F)nc2)nn1Cc1ccccc1F [Compound 36, 2-(2-fluorobenzyl)-6-(2-(2,2,2-trifluoroethoxy)pyrimidin-5-yl)pyridazin-3(2H)-one] and O=c1ccc(-c2cnc(OCC(F)(F)F)nc2)nn1Cc1ccccc1O [Compound 49, 2-(2-hydroxybenzyl)-6-(2-(2,2,2-trifluoroethoxy)pyrimidin-5-yl)pyridazin-3(2H)-one] cannot be ordered by IC50: less than 10 µM for the first, less than 10 µM for the second.

O=c1ccc(-c2cnc(OCC(F)(F)F)nc2)nn1Cc1ccc(F)cc1 [Compound 37, 2-(4-fluorobenzyl)-6-(2-(2,2,2-trifluoroethoxy)pyrimidin-5-yl)pyridazin-3(2H)-one] and O=c1ccc(-c2cnc(OCC(F)(F)F)nc2)nn1Cc1ccc(CO)cc1 [Compound 48, 2-(4-(hydroxymethyl)benzyl)-6-(2-(2,2,2-trifluoroethoxy)pyrimidin-5-yl)pyridazin-3(2H)-one] cannot be ordered by IC50: less than 10 µM for the first, less than 10 µM for the second.

O=c1ccc(-c2cnc(OCC(F)(F)F)nc2)nn1Cc1cccc(F)c1F [Compound 38, 2-(2,3-difluorobenzyl)-6-(2-(2,2,2-trifluoroethoxy)pyrimidin-5-yl)pyridazin-3(2H)-one] and O=c1ccc(-c2cnc(OCC(F)(F)F)nc2)nn1Cc1c(F)cccc1F [Compound 41, 2-(2,6-difluorobenzyl)-6-(2-(2,2,2-trifluoroethoxy)pyrimidin-5-yl)pyridazin-3(2H)-one] cannot be ordered by IC50: less than 10 µM for the first, less than 10 µM for the second.

O=c1ccc(-c2cnc(OCC(F)(F)F)nc2)nn1Cc1ccc(F)cc1F [Compound 39, 2-(2,4-difluorobenzyl)-6-(2-(2,2,2-trifluoroethoxy)pyrimidin-5-yl)pyridazin-3(2H)-one] and O=c1ccc(-c2cnc(OCC(F)(F)F)nc2)nn1Cc1cc(F)ccc1F [Compound 40, 2-(2,5-difluorobenzyl)-6-(2-(2,2,2-trifluoroethoxy)pyrimidin-5-yl)pyridazin-3(2H)-one] cannot be ordered by IC50: less than 10 µM for the first, less than 10 µM for the second.

O=c1ccc(-c2cnc(OCC(F)(F)F)nc2)nn1Cc1ccc(F)c(F)c1 [Compound 42, 2-(3,4-difluorobenzyl)-6-(2-(2,2,2 trifluoroethoxy)pyrimidin-5-yl)pyridazin-3(2H)-one] and O=c1ccc(-c2cnc(OCC(F)(F)F)nc2)nn1Cc1cc(F)cc(F)c1 [Compound 43, 2-(3,5-difluorobenzyl)-6-(2-(2,2,2-trifluoroethoxy)pyrimidin-5-yl)pyridazin-3(2H)-one] cannot be ordered by IC50: less than 10 µM for the first, less than 10 µM for the second.

First: O=c1ccc(-c2cnc(N3CC(F)(F)C3)nc2)nn1Cc1ccc(Cl)cc1 [Compound 44, 2-(4-chlorobenzyl)-6-(2-(3,3-difluoroazetidin-1-yl)pyrimidin-5-yl)pyridazin-3(2H)-one]
Second: O=C1CCCN1c1ncc(-c2ccc(=O)n(Cc3ccc(Cl)cc3)n2)cn1 [Compound 45, 2-(4-chlorobenzyl)-6-(2-(2-oxopyrrolidin-1-yl)pyrimidin-5-yl)pyridazin-3(2H)-one]
The IC50 of the first is lower: less than 10 µM for the first, 10 to 100 µM for the second. The first is the more potent here.

O=c1ccc(-c2cnc(NCCOC(F)F)nc2)nn1Cc1ccc(Cl)cc1 [Compound 46, 2-(4-chlorobenzyl)-6-(2-((2-(difluoromethoxy)ethyl)amino)pyrimidin-5-yl)pyridazin-3(2H)-one] and O=c1ccc(-c2ccc(OC(F)F)cc2)nn1Cc1ccc(Cl)cc1 [Compound 103, 2-(4-chlorobenzyl)-6-(4-(difluoromethoxy)phenyl)pyridazin-3(2H)-one] cannot be ordered by IC50: less than 10 µM for the first, less than 10 µM for the second.

CC1CCC(=O)N1c1ncc(-c2ccc(=O)n(Cc3ccc(Cl)cc3)n2)cn1 (stereo not drawn) [Compound 47, 2-(4-chlorobenzyl)-6-(2-(2-methyl-5-oxopyrrolidin-1-yl)pyrimidin-5-yl)pyridazin-3(2H)-one] and O=c1ccc(-c2ccc(C3CC3)cc2)nn1Cc1ccc(Cl)cc1 [Compound 104, 2-(4-chlorobenzyl)-6-(4-cyclopropylphenyl)pyridazin-3(2H)-one] cannot be ordered by IC50: less than 10 µM for the first, less than 10 µM for the second.

O=c1ccc(-c2cnc(OCC(F)(F)F)nc2)nn1Cc1cc(Cl)ccc1O [Compound 50, 2-(5-chloro-2-hydroxybenzyl)-6-(2-(2,2,2-trifluoroethoxy)pyrimidin-5-yl)pyridazin-3(2H)-one] and [2H]C([2H])(c1ccccc1)n1nc(-c2cnc(OCC(F)(F)F)nc2)ccc1=O [Compound 52, 2-(phenylmethyl-d2)-6-(2-(2,2,2-trifluoroethoxy)pyrimidin-5-yl)pyridazin-3(2H)-one] cannot be ordered by IC50: less than 10 µM for the first, less than 10 µM for the second.

Compared with O=c1ccc(-c2ccc(OC(F)F)nc2)nn1[C@@H](CO)c1ccc(Cl)cc1 [Compound 53, (R)-2-(1-(4-chlorophenyl)-2-hydroxyethyl)-6-(6-(difluoromethoxy)pyridin-3-yl)pyridazin-3(2H)-one], O=c1ccc(-c2ccc(OCC(F)F)cc2)nn1Cc1ccc(Cl)cc1 [Compound 102, 2-(4-chlorobenzyl)-6-(4-(2,2-difluoroethoxy)phenyl)pyridazin-3(2H)-one] is lower in IC50: greater than 100 µM for the first, less than 10 µM for the second. The second is the more potent here.

O=c1ccc(-c2cnc(OCC(F)(F)F)nc2)nn1C1(c2ccccc2)CC1 [Compound 54, 2-(1-phenylcyclopropyl)-6-(2-(2,2,2-trifluoroethoxy)pyrimidin-5-yl)pyridazin-3(2H)-one] and O=c1ccc(-c2ccc(OCC(F)(F)F)cc2)nn1Cc1ccc(Cl)cc1 [Compound 101, 2-(4-chlorobenzyl)-6-(4-(2,2,2-trifluoroethoxy)phenyl)pyridazin-3(2H)-one] cannot be ordered by IC50: less than 10 µM for the first, less than 10 µM for the second.

O=c1ccc(-c2ccc(OC(F)(F)F)cc2)nn1Cc1ccc(Cl)cc1 [Compound 105, 2-(4-chlorobenzyl)-6-(4-(trifluoromethoxy)phenyl)pyridazin-3(2H)-one] and N#CCOc1ccc(-c2ccc(=O)n(Cc3ccc(Cl)cc3)n2)cc1 [Compound 108, 2-(4-(1-(4-chlorobenzyl)-6-oxo-1,6-dihydropyridazin-3-yl)phenoxy)acetonitrile] cannot be ordered by IC50: less than 10 µM for the first, less than 10 µM for the second.

First: COCCOc1ccc(-c2ccc(=O)n(Cc3ccc(Cl)cc3)n2)cc1 [Compound 106, 2-(4-chlorobenzyl)-6-(4-(2-methoxyethoxy)phenyl)pyridazin-3(2H)-one]
Second: CNC(=O)c1ccc(-c2ccc(=O)n(Cc3ccc(Cl)cc3)n2)cc1 [Compound 113]
The IC50 of the first is lower: less than 10 µM for the first, 10 to 100 µM for the second. The first is the more potent here.

First: CC(=O)Nc1ccc(-c2ccc(=O)n(Cc3ccc(Cl)cc3)n2)cc1 [Compound 107, N-(4-(1-(4-chlorobenzyl)-6-oxo-1,6-dihydropyridazin-3-yl)phenyl)acetamide]
Second: NC(=O)c1ccc(-c2ccc(=O)n(Cc3ccc(Cl)cc3)n2)cc1 [Compound 114, 4-(1-(4-chlorobenzyl)-6-oxo-1,6-dihydropyridazin-3-yl)benzamide]
The IC50 of the first is lower: less than 10 µM for the first, 10 to 100 µM for the second. The first is the more potent here.

CC1Cc2cc(-c3ccc(=O)n(Cc4ccc(Cl)cc4)n3)ccc2O1 (stereo not drawn) [Compound 109, 2-(4-chlorobenzyl)-6-(2-methyl-2,3-dihydrobenzofuran-5-yl)pyridazin-3(2H)-one] and C[C@H]1Cc2cc(-c3ccc(=O)n(Cc4ccc(Cl)cc4)n3)ccc2O1 [Compound 110, (S)-2-(4-chlorobenzyl)-6-(2-methyl-2,3-dihydrobenzofuran-5-yl)pyridazin-3(2H)-one] cannot be ordered by IC50: less than 10 µM for the first, less than 10 µM for the second.

C[C@@H]1Cc2cc(-c3ccc(=O)n(Cc4ccc(Cl)cc4)n3)ccc2O1 [Compound 111, (R)-2-(4-chlorobenzyl)-6-(2-methyl-2,3-dihydrobenzofuran-5-yl)pyridazin-3(2H)-one] and O=c1ccc(-c2ccc3c(c2)CCO3)nn1Cc1ccc(Cl)cc1 [Compound 112, 2-(4-chlorobenzyl)-6-(2,3-dihydrobenzofuran-5-yl)pyridazin-3(2H)-one] cannot be ordered by IC50: less than 10 µM for the first, less than 10 µM for the second.

CC1(C)Cc2cc(-c3ccc(=O)n(Cc4ccc(Cl)cc4)n3)ccc2O1 [Compound 115, 2-(4-chlorobenzyl)-6-(2,2-dimethyl-2,3-dihydrobenzofuran-5-yl)pyridazin-3(2H)-one] and O=c1ccc(-c2ccc3scnc3c2)nn1Cc1ccc(Cl)cc1 [Compound 117, 6-(benzo[d]thiazol-5-yl)-2-(4-chlorobenzyl)pyridazin-3(2H)-one] cannot be ordered by IC50: greater than 100 µM for the first, greater than 100 µM for the second.

NC(=O)c1ccc(Cn2nc(-c3ccc(OC(F)F)cc3)ccc2=O)cc1 [Compound 116, 4-((3-(4-(difluoromethoxy)phenyl)-6-oxopyridazin-1(6H)-yl)methyl)benzamide] and CN(C)S(=O)(=O)c1ccc(Cn2nc(-c3ccc(OC(F)F)cc3)ccc2=O)cc1 [Compound 118, 4-((3-(4-(difluoromethoxy)phenyl)-6-oxopyridazin-1(6H)-yl)methyl)-N,N-dimethyl-benzenesulfonamide] cannot be ordered by IC50: greater than 100 µM for the first, greater than 100 µM for the second.
